Experimental data as given in patent US5919799A, “Imidazothiazole compound” (Nikken Chemicals Co., Ltd., priority 1995, dated 1999).
Structures can show the parent of a compound that is named as a salt.

Experiments:
[1] = system: VCR resistant murine leukemic (P388/VCR) cells; test: In vivo effect of overcoming resistance to vincristine in VCR resistant murine leukemia cell bearing mice (intraperitoneal); design: species or system CDF1 male mice; conditions: VCR (100 μg/kg) + compound (100 mg/kg), i.p., 5 days
Protocol: (a) 10^6 VCR resistant murine leukemic (P388/VCR) cells were transplanted intraperitoneally to groups of six CDF1 male mice. The compound of the present invention (10 or 100 mg/kg) was suspended in 0.5% sodium carboxymethyl cellulose containing 0.1% Tween 80, while the VCR (100 μg/kg) was dissolved in physiological saline. These were each administered intraperitoneally over 5 days and the mice observed to find the days of survival and the rate of prolongation of life with respect to the control (T/C). The effect in overcoming resistance to an anti-neoplastic agent (T/V) was found from the following formula:
Effect in overcoming resistance to anti-neoplastic agent (T/V%)=(Rate of prolongation of life when co-administering VCR and compound of present invention (T/C%))/(Rate of prolongation of life by VCR alone
In Table 5, "Control" is the non-administered group, VCR alone is the group administered just VCR (100 μg /kg), VCR+Compound 1 is the group co-administered VCR (100 μg /kg) and Compound 1 (100 mg/kg) and so on to VCR+Compound 14* which is the group co-administered VCR (100 μg /kg) and Compound 14 (10 mg/kg).

[2] = Acute toxicity test (a), intraperitoneal, three animals per group; conditions: mouse, in vivo, ip, ICR male mice, up to 7 days after administration
Excerpt: (§1) (a) Animals used: ICR male mice (Charles River Japan), 7 to 8 weeks old, were used three to a group.
(§2) Test method: The compound of the present invention was suspended in 0.5% sodium carboxymethyl cellulose(CMC-Na) containing 0.1% Tween 80. […] The survival of the animals was examined up to 7 days after administration, then the Van Der Wearder area method was used to calculate the LD50 value.

[3] = system: VJ-300 cells (multidrug resistant clones of KB cells); test: In vitro suppression of proliferation of VJ-300 cells by co-administration with vincristine; type: cell-based, Human; conditions: co-administered VCR and test compound (1 μg/ml), relative to VCR alone in KB = 1
Protocol: (§3) As the incubation solution, an Eagle MEM medium (made by Nissui Seiyakusha) containing 10% fetal calf serum (made by Flow Laboratories Co.) and 0.292 mg/ml L-glutamine (made by Flow Laboratories Co.) was used. The action overcoming resistance to an anti-neoplastic agent and effect in enforcing the effect of an anti-neoplastic agent obtained through co-administration of the anti-neoplastic agent doxorubicin (adriamycin, ADM) and the test compounds were tested as follows:
The test cells were suspended in the incubation medium and adjusted to a cell density of about 200 cells/ml. 2 ml portions of the cell suspension were placed in petri dishes and incubated in a carbon dioxide gas incubator (5% CO2, 95% air) at 37° C. for 24 hours. Next, predetermined concentrations of aqueous ADM solutions and dimethyl sulfoxide (DMSO) solutions of predetermined concentrations of the test compounds were added into 5 to 10 μl portions, then incubation was continued for 7 days. After the end of the incubation, the samples were fixed by methanol, Giemsa staining was performed, the number of colonies in each dish was counted, and a volume reaction curve was prepared. This was used to calculate the ADM concentration at a 50% cell survival rate (LD50) and judge the action overcoming resistance to an anti-neoplastic agent and effect in enhancing the effect of an anti-neoplastic agent.
The LD50 concentration of ADM in the ADM control group for KB cells was shown as the resistance degree "1" and the other LD50 concentrations were indexed against this to calculate the resistance degrees. In Table 2, ADM alone (control) is the group administered ADM alone, ADM+Compound 1 is the group co-administered ADM and Compound 1 (1 μg /ml) and so on down to ADM+Compound 19 which is the group co-administered ADM and Compound 19 (1 μg /ml).
A volume reaction curve was prepared and the resistance calculated. In the Tables, VCR alone (control) is the group administered VCR alone, VCR+Compound 1 is the group co-administered VCR and Compound 1(1 μg /ml) and so on down to VCR+Compound 16 which is the group co-administered VCR and Compound 16 (1 μg/ml).

[4] = system: VCR resistant murine leukemia (P388/VCR) cells; test: In vivo effect of overcoming resistance with etoposide (VP-16) in P388/VCR bearing mice (intravenous); design: species or system CDF1 male mice; conditions: VP-16 (3 mg/kg) + compound (40 mg/kg), i.v., five days; for Effect overcoming resistance (T/V %): vs VP-16 alone; for Rate of prolongation of life (T/C %): vs non-administered control
Protocol: (b) Separately, groups of six CDF1 male mice were intravenously given transplants of 1.2×10^5 VCR resistant murine leukemia (P388/VCR) cells. The compound of the present invention (20 or 40 mg/kg) was dissolved in 0.01N hydrochloric acid. Etoposide (VP-16, 3 mg/kg) was dissolved in a physiological saline solution. These were administered intravenously for five days and the days of survival were found. In the same way as (a), the rate of prolongation of life with respect to the control (T/C) and the effect in overcoming the resistance to an anti-neoplastic agent (T/V) were found. In Table 6, the control is the non-administered group, VP-16 alone is the group administered VP-16 (3 mg/kg) and VP-16+Compound 5 is the group co-administered VP-16 (3 mg/kg) and Compound 5 (40 mg/kg) and so on to VP-16+Compound 16 which is the group co-administered VP-16 (3 mg/kg) and Compound 16 (40 mg/kg).

[5] = Acute toxicity test (b), intraperitoneal, five mice per group; conditions: mouse, in vivo, ip, groups of five, 1000 mg to 250 mg/kg
Protocol: as §1, §2
(b) Groups of five mice were tested in the same way as in (a) except that the drug was administered intraperitoneally from 1000 mg by a rate of 1/√2 until 250 mg/kg.

[6] = system: VJ-300 cells (multidrug resistant clones of KB cells); test: In vitro suppression of proliferation (colony formation) of VJ-300 cells by co-administration with doxorubicin; type: cell-based, Human; conditions: ADM alone (Control); relative to KB = 1
Protocol: In Vitro Test of Effect of Suppression of Proliferation of Cancer Cells by Co-Administration with Doxorubicin
as §3, with “Human epipharynx cancer derived cancer KB cells (sensitive cells) and their multidrug resistant clones VJ-300 cells (resistant cells) were used as test cells. As” for “As”
The test cells were suspended in the incubation medium and adjusted to a cell density of about 200 cells/ml. 2 ml portions of the cell suspension were placed in petri dishes and incubated in a carbon dioxide gas incubator (5% CO2, 95% air) at 37° C. for 24 hours. […] After the end of the incubation, the samples were fixed by methanol, Giemsa staining was performed, the number of colonies in each dish was counted, and a volume reaction curve was prepared. […]

In the case of `CN1CCCC(C(=O)NN=Cc2c(-c3ccccc3)nc3sc4c(n23)CCCC4)C1` (stereo not shown) [Compound 5, 5,6,7,8-tetrahydro-2-phenyl-3-(N-methyl-3-piperidylcarbonylaminoiminomethyl)imidazo[2,1-b]benzothiazole], the Days of survival [1] is reported as 14.38 days, the “Effect overcoming resistance (T/V %)” value ([1]; vs VCR alone) is reported as 130% and the “Rate of prolongation of life (T/C %)” value ([1]; vs non-administered control) is reported as 138%. For the same molecule, the LD50 at 168 h [2] was 604 mg/kg, the “Resistance with VCR, VJ-300 (resistance degree)” value (shortened to “Resistance with VCR”) ([3]; Table 3) was 1.2 and the Days of survival [4] was 14.0 days. For the same molecule, the “Effect overcoming resistance (T/V %)” value [4] was 125% and the “Rate of prolongation of life (T/C %)” value [4] was 136%.
For `CCCN1CCCC(C(=O)NN=Cc2c(-c3ccccc3)nc3sc4c(n23)CCCC4)C1` (stereo not shown) [Compound 12, 5,6,7,8-tetrahydro-2-phenyl-3-[N-propyl-3-piperidylcarbonylaminoiminomethyl]imidazo[2,1-b]benzothiazole hydrochloride], the LD50 at 168 h [5] was 592 mg/kg, the “Resistance with VCR” value ([3]; Table 4) was 1.3 and the Days of survival [4] was 13.2 days. The “Effect overcoming resistance (T/V %)” value [4] was 118% and the “Rate of prolongation of life (T/C %)” value [4] was 128%.
For `CN1CCCC(C(=O)NN=Cc2c(-c3ccccc3)nc3sc4ccccc4n23)C1` (stereo not shown) [Compound 15, 2-phenyl-3-[N-methyl-3-piperidylcarbonylaminoiminomethyl]imidazo[2,1-b]benzothiazole hydrochloride], the LD50 at 168 h [5] was no less than 1000 mg/kg, the “Resistance with VCR” value ([3]; Table 4) was 3.1 and the Days of survival [4] was 13.0 days. The “Effect overcoming resistance (T/V %)” value [4] was 116% and the “Rate of prolongation of life (T/C %)” value [4] was 126%.
With `COc1cccc2c1C(=O)c1c(O)c3c(c(O)c1C2=O)C[C@@](O)(C(=O)CO)C[C@@H]3O[C@H]1C[C@H](N)[C@H](O)[C@H](C)O1` [ADM, doxorubicin] the “Resistance at ADM, VJ-300 (resistance degree)” value [6] was 46.7.
